Here are results for eight compounds from US6413974B1, “6,9,-disubstituted 2-[trans-(4-aminocyclohexyl) amino] purines” (Aventis Pharmaceuticals Inc., priority 1998, dated 2002).

For test [1], the target named is T1, cdk2/cyclin E (Homo sapiens, UniProt P24941).
T1 construct: made in house; host or cells: insect cells (baculovirus co-infection)
In words: Cyclin-Dependent Kinase 2 Assay (cdk-2 inhibition). Particulars: GST-Rb substrate, 30 min at 30° C. It counts as biochemical. As for the experimental part: (§1) The transformed bacteria were grown overnight to saturation, then diluted in YT broth and incubated at 37° C. for 2 h. The protein was induced by incubation with 0.1 mM isopropylthioglycoside for 3 h. Following sedimentation by centrifugation, the cells were lysed by sonication in STE buffer ([…] NaCl, 10 mM Tris, pH 8.0, 1 mM EDTA) containing 10% sarkosyl. Particulate matter was removed by centrifugation and the lysate was incubated with glutathione-Sepharose at 4° C. The beads were washed with kinase buffer and then quantitation of Coomassie blue-stained proteins separated by SDS-PAGE was performed using a protein standard of known concentration.
(§2) Pre-wet Millipore Multiscreen 96-well filter plates (0.65 μm Durapore filters) with 200 μl kinase buffer (50 mM HEPES, pH 7.5, 10 mM MgCl2, 1 mM EGTA). GST-Rb (0.5 μg) bound to glutathione-Sepharose beads is added in 50 μl per well and the solution removed by application of vacuum. […] Add 0.1 μg cdk4/cyclin D1 (insect cell lysate) to initiate assay. Incubate 30 min at 37° C. Terminate reaction by filtration on Millipore Vacuum Manifold. Wash four times with TNEN (20 mM Tris, pH 8.0, 100 mM Na Cl, 1 mM EDTA, 0.5% nonidet P-40). After drying the plates at room temperature, the filter plates were placed in adapter plates (Packard) and 40 μl of Microscint-O® (Packard) was added to each well. Top Seal A film was used to cover the plates before counting in a Top Count Scintillation Counter.
GST-Rb as described above for cdk4/cyclin D1
Assay conditions for cdk2/cyclin E were identical to those for cdk4/cyclin D1 including the substrate. The concentration of recombinant cdk2/cyclin E in the assay was 0.1 μg per 100 μl assay. Incubation was for 30 min at 30° C.

Test [2] has as its target T2, cdk4/cyclin D1 (Homo sapiens, UniProt P11802).
T2 construct: made in house; host or cells: Sf9 insect cells (Bac-to-Bac baculovirus, pFastBac)
In words: Cyclin-dependent kinase 4 Assay. It counts as biochemical. Particulars: cdk4/cyclin D1, GST-Rb substrate, 10 μM ATP, 30 min at 37° C.; read-out: CDK4 Inhibition IC50. Here is the method:
The IC50 values for cdk-4 inhibition were by the following method:
as §1
The cDNA for human cyclin D1 was cloned by RT PCR using […] from MCF-7 cells. […] Bacmid DNA was used to transfect Sf9 insect cells to produce recombinant virus. Following plaque purification of the virus, the viral preparations were amplified until high titer stocks were acheived.
Lysates were prepared by lysis of Sf9 cells coinfected with cdk4 and cyclin D1 in 50 mM HEPES, pH 7.5, 10 mM MgCl2, 1 mM DTT, 0.1 mM phenylmethylsulfonyl fluoride, 5 μg/ml aprotinin, and 5 μg/ml leupeptin using a PARR bomb under 500 p.s.i nitrogen pressure for 5 min at 4° C. Insoluble material was sedimented at 10,000×g for 20 min at 4° C. Glycerol was added to the supernatant to 10% and stored at −80° C. in aliquots.
as §2

Test [3] has as its system MDA-MB-231. The test is described as follows: In vitro tumor cell proliferation, MDA-MB-231. The class given is cell-based, human. As to conditions: read-out: In vitro Tumor Cell Proliferation (IC50, μM) Breast MDA-MB-231. Here is the method:
(§3) The proliferation of tumor cells was measured using a sulforhodamine B assay as described in Skehan, P., et al., J. Natl. Cancer Inst. […] Tumor cells were harvested with trypsin-EDTA, cells that excluded trypan blue were counted, added to 96-well plates and incubated overnight at 37° C. Drug was added to the wells following dilution in culture medium. Three days later, the medium was removed and replenished with medium containing fresh drug and incubated an additional 4 days. The cells were then fixed with 0.1 ml 10% trichloroacetic acid for 60 min at 4° C. The plates were rinsed five times with tap water, air-dried and stained for 30 min with 0.4% sulforhodamine B in 1% acetic acid and air-dried.
(§4) Alternatively, the CyQUANT cell proliferation assay was used to quantify tumor cell proliferation. Tumor cells were harvested with trypsin-EDTA, cells that excluded trypan blue were counted, added to 96-well plates and incubated overnight at 37° C. Drug was added to the wells following dilution in culture medium. Three days later the medium was removed and the plates frozen at −80° C. for at least 30 minutes.

Test [4] deals with HT-29. In words: In vitro tumor cell proliferation, HT-29. It counts as cell-based, human. As to conditions: read-out: In vitro Tumor Cell Proliferation (IC50, μM) Colon HT-29 (converted). Here is the method: as §3, §4
HT-29 is a human colon adenocarcinoma, moderately well-differentiated grade II (HTB 38);

Test [5] deals with Colo-205. In words: In vitro tumor cell proliferation, Colo-205. The class given is cell-based, human. As to conditions: read-out: In vitro Tumor Cell Proliferation (IC50, μM) Colon Colo-205. As for the experimental part:
as §3, §4

For test [6], the system named is A549. The test is described as follows: In vitro tumor cell proliferation, A549. The class given is cell-based, human. Particulars: read-out: In vitro Tumor Cell Proliferation (IC50, μM) Lung A549. Here is the method:
as §3, §4

Test [7] concerns DMS-114. In words: In vitro tumor cell proliferation, DMS-114. It counts as cell-based, human. As to conditions: read-out: In vitro Tumor Cell Proliferation (IC50, μM) Lung DMS-114. Here is the method:
as §3, §4

For test [8], the system named is PC-3. The test is described as follows: In vitro tumor cell proliferation, PC-3. As to conditions: read-out: In vitro Tumor Cell Proliferation (IC50, μM) Prostate PC-3. It counts as cell-based, human. Here is the method: as §3, §4
Test [9] deals with DU 145. The test is described as follows: In vitro tumor cell proliferation, DU 145. The class given is cell-based, human. Particulars: read-out: In vitro Tumor Cell Proliferation (IC50, μM) Prostate DUI45. As for the experimental part:
as §3, §4

[10] abbreviates: Homo sapiens, MDA-MB-231, values marked * (mark not explained).
Setting [11] is: values marked * (mark not explained), trihydrochloride.
Setting [12] is: Homo sapiens, HT-29, values marked * (mark not explained).
The mark [13] stands for this setting: Homo sapiens, COLO 205, values marked * (mark not explained).
[14] abbreviates: Homo sapiens, A549, values marked * (mark not explained).
Setting [15] is: Homo sapiens, DMS-114, values marked * (mark not explained).
Where [16] appears, read: Homo sapiens, PC-3, values marked * (mark not explained).
[17] abbreviates: Homo sapiens, DU-145, values marked * (mark not explained).
Where [18] appears, read: values marked * (mark not explained), dihydrochloride.
Setting [19] is: values without *, dihydrochloride.

Each structure is given as a SMILES string. “And” between values parts separate entries of the source, which are not always exact repeats. Identical values can stand only once. Counter-ions that a name gives are not always drawn. Like-named read-outs stand apart in the source and are kept apart here.

T2 sequence (P11802 whole entry): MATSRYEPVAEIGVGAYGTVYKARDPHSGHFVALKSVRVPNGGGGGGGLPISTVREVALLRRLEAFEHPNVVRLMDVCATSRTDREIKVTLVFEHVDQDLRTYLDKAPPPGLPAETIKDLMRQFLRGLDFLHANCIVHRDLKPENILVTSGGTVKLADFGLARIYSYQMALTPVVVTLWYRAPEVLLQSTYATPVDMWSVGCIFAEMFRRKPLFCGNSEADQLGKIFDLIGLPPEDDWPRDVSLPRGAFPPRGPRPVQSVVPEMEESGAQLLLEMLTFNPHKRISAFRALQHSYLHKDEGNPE
T2 sequence (P24385 whole entry partner): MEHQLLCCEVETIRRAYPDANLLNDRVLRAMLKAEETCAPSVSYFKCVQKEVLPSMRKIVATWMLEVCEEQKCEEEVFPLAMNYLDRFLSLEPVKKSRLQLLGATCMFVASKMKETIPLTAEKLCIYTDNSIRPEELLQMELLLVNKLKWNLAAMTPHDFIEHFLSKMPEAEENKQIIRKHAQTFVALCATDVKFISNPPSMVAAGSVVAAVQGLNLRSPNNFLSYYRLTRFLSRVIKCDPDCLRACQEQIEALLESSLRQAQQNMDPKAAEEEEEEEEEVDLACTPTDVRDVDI

As for `N[C@H]1CC[C@H](Nc2nc(NCCc3ccc4c(c3)OCO4)c3ncn(C4CCCC4)c3n2)CC1` [Example 4, 2-[Trans-(4-aminocyclohexyl)amino]-6-[2-(3,4-methylenedioxyphenyl)ethylamino]-9-cyclopentylpurine dihydrochloride], the IC50 is 5100 nM in test [1] and more than 100000 nM in test [2].

With `C[C@H](Nc1nc(N[C@H]2CC[C@H](N)CC2)nc2c1ncn2C1CCCC1)c1ccccc1` [Example 6, (S)-2-[Trans-(4-aminocyclohexyl)amino]-6-[(α-methylbenzyl)amino]-9-cyclopentylpurine dihydrochloride], the IC50 in test [1] is 2600 nM; in test [2] it was more than 100000 nM.

In the case of `N[C@H]1CC[C@H](Nc2nc(NCCN3CCOCC3)c3ncn(C4CCCC4)c3n2)CC1` [Example 13, 2-[Trans-(4-aminocyclohexyl)amino]-6-[2-(4-morpholinyl)ethylamino]-9-cyclopentylpurine trihydrochloride], the IC50 in [1] is 110 nM; in test [2] it was 3200 nM and 4200 nM; in test [3] (setting [10]), 4.8 µM; in test [3] (setting [11]), 9.4 µM; in test [4] (setting [12]) it was 11 µM; in test [5] (setting [13]), 5.3 µM. In addition, the IC50 in test [5] (setting [11]) amounted to 5.2 µM; in test [6] (setting [14]), 7.9 µM; in test [6] (setting [11]), 6.9 µM; in test [7] (setting [15]), 8.8 µM; in test [7] (setting [11]), 6.2 µM; in [8] (setting [16]) it was 7.2 µM. Further, the IC50 in [8] (setting [11]) was 6.4 µM; in test [9] (setting [17]) it was 6.7 µM; in test [9] (setting [11]), 7.5 µM.

Turning to `CC(C)n1cnc2c(NCc3cccc(Cl)c3)nc(N[C@H]3CC[C@H](N)CC3)nc21` [Example 15, 2-[Trans-(4-aminocyclohexyl)amino]-6-[(3-chloro)benzylamino]-9-(2-propyl)purine dihydrochloride], the IC50 was 100 nM in [1]; 1500 nM in test [2]; 3 µM in test [3] (setting [10]); 2.7 µM in test [4] (setting [12]); 2.4 µM in test [5] (setting [13]); 1.4 µM in test [6] (setting [14]). Moreover, the IC50 in [7] (setting [15]) amounted to 1.3 µM; in test [8] (setting [16]), 2.3 µM; in [9] (setting [17]) it was 2.8 µM.

Consider `CCNc1nc(N[C@H]2CC[C@H](N)CC2)nc2c1ncn2C1CCCC1` [Example 33, 2-[Trans-(4-aminocyclohexyl)amino]-6-(ethylamino)-9-cyclopentylpurine dihydrochloride], for which the IC50 is 14 nM and 26 nM and 6 nM in test [1]; 180 nM in [2]; 1.5 µM in test [4] (setting [12]); 2.1 µM in test [4] (setting [18]); 2.1 µM in [5] (setting [13]); 1.2 µM in test [6] (setting [14]). Besides, the IC50 in [6] (setting [18]) amounted to 1.8 µM; in test [7] (setting [15]), 0.7 µM; in [7] (setting [18]), 0.9 µM; in test [8] (setting [16]), 0.9 µM; in [8] (setting [18]), 1 µM; in test [9] (setting [17]), 0.8 µM.

For `N[C@H]1CC[C@H](Nc2nc(NCc3ccco3)c3ncn(C4CCCC4)c3n2)CC1` [Example 38, 2-[Trans-(4-aminocyclohexyl)amino]-6-(2-furanmethylamino)-9-cyclopentylpurine dihydrochloride], the IC50 was 19 nM in test [1]; 1400 nM in test [2]; 2.1 µM in test [4] (setting [12]); 3.6 µM in test [4] (setting [18]); 2.4 µM in [5] (setting [13]); 2.8 µM in test [5] (setting [18]). The IC50 was found to be 1.7 µM in test [6] (setting [14]); 1.1 µM in test [6] (setting [18]); 1.2 µM in [7] (setting [15]); 1.4 µM in test [8] (setting [16]); 1.7 µM in test [8] (setting [18]).

As for `N[C@H]1CC[C@H](Nc2nc(NCc3ccccc3F)c3ncn(C4CCCC4)c3n2)CC1` [Example 42, 2-[Trans-(4-aminocyclohexyl)amino]-6-[(2-fluorobenzyl)amino]-9-cyclopentylpurine dihydrochloride], the IC50 is 420 nM in test [1]; 1000 nM and 6000 nM in test [2]; 16 µM in test [3] (Homo sapiens, MDA-MB-231, values without *); 17 µM in test [3] (setting [19]); 15 µM in [4] (Homo sapiens, HT-29, values without *); 7.1 µM in test [6] (Homo sapiens, A549, values without *). The IC50 in test [7] (Homo sapiens, DMS-114, values without *) turned out to be 10 µM; in test [7] (setting [19]), 5.1 µM; in [8] (Homo sapiens, PC-3, values without *), 8.8 µM; in [8] (setting [19]) it was 7.1 µM; in test [9] (Homo sapiens, DU-145, values without *) it was 7.3 µM.

`CC(C)n1cnc2c(NCc3cccc(I)c3)nc(N[C@H]3CC[C@H](N)CC3)nc21` [Example 51, 2-[Trans-(4-aminocyclohexyl)amino]-6-[(3-iodobenzyl)amino]-9-(2-propyl)purine dihydrochloride]: the IC50 was found to be 780 nM in test [1] and 2100 nM in [2].
